Measurements taken from patent US9783509B2, “Six-membered C-N-linked aryl sulfide derivatives and aryl sulfoxide derivatives as pest conrol agents” (BAYER CROPSCIENCE AKTIENGESELLSCHAFT, priority 2013, dated 2017).
Read-outs that look alike come from different tables or passages of the source.

Assays:
[1] = log P by reversed-phase HPLC analogously to OECD Guideline 117; type: physicochemical
Protocol: The log P values were determined analogously to OECD Guideline 117 (EC Directive 92/69/EEC) by HPLC (high-performance liquid chromatography) using reversed-phase columns (C 18), by the following methods:
[a] LC-MS determination in the acidic range is effected at pH 2.7 with 0.1% aqueous formic acid and acetonitrile (containing 0.1% formic acid) as eluents with a linear gradient from 10% acetonitrile to 95% acetonitrile; or with 0.025% aqueous trifluoroacetic acid and acetonitrile (containing 0.025% trifluoroacetic acid) as eluents with a linear gradient from 50% acetonitrile to 80% acetonitrile.
[b] LC-MS determination in the neutral range is effected at pH 7.8 with 0.001 molar aqueous ammonium hydrogencarbonate solution and acetonitrile as eluents; linear gradient from 10% acetonitrile to 95% acetonitrile.
Calibration is effected with solutions of a homologous series of unbranched alkan-2-ones (having 3 to 16 carbon atoms) with known log P values (log P values determined on the basis of the retention times by linear interpolation between two successive alkanones).

[2] = test system: greenhouse red spider mite (Tetranychus urticae); assay: Tetranychus urticae spray test, OP-resistant (bean leaf discs); type: in vivo; conditions: application rate 500 g/ha, after 6 days
Protocol: Tetranychus urticae—Spray Test, OP-Resistant
Solvent: 78.0 parts by weight of acetone • • 1.5 parts by weight of dimethylformamide
Emulsifier: alkylaryl polyglycol ether
To produce an appropriate active ingredient formulation, 1 part by weight of active ingredient is dissolved using the specified parts by weight of solvent and made up with water containing an emulsifier concentration of 1000 ppm until the desired concentration is attained. To produce further test concentrations, the preparation is diluted with emulsifier-containing water.
Discs of bean leaves (Phaseolus vulgaris) infested by all stages of the greenhouse red spider mite (Tetranychus urticae) are sprayed with an active ingredient formulation of the desired concentration.
After 6 days, the efficacy in % is determined. 100% means that all the spider mites have been killed; 0% means that none of the spider mites have been killed.

[3] = [a] acidic range, pH 2.7, formic acid (or trifluoroacetic acid)/acetonitrile
[4] = [b] neutral range, pH 7.8, ammonium hydrogencarbonate/acetonitrile
[5] = reversed-phase C18 HPLC column, pH 2.7, table column, [a] acidic range, pH 2.7, formic acid (or trifluoroacetic acid)/acetonitrile, read-out: LogP[a]
[6] = reversed-phase C18 HPLC column, pH 2.7, running text, [a] acidic range, pH 2.7, read-out: log P[a]
[7] = reversed-phase C18 HPLC column, pH 7.8, running text, [b] neutral range, pH 7.8, read-out: log P[b]
[8] = reversed-phase C18 HPLC column, pH 2.7, running text, HCOOH, read-out: log P(HCOOH)

Row | Molecule | chromatographic logP [1, 6] | LogP[a] [1, 3] | LogP[b] [1, 4] | other results
1 | 1-{2,4-Diethyl-5-[(2,2,2-trifluoroethyl)sulphinyl]phenyl}-6-methyl-2,4-dioxo-1,2,3,4-tetrahydropyrimidine-5-carbonitrile |  |  |  | log P[a] ([1]; pH 2.7): 3.16
2 | Cn1c(=O)cnn(-c2cc([S+]([O-])CC(F)(F)F)c(Cl)cc2Cl)c1=O (racemic) [compound 13] |  | 2.48 |  | efficacy (spider mites killed) [2]: 90%
3 | Cc1ccc(-n2ncc(=O)n(C)c2=O)cc1[S+]([O-])CC(F)(F)F (racemic) [compound 24] |  | 1.84 | 1.83 | efficacy (spider mites killed) [2]: 100%
4 | CCn1c(=O)cnn(-c2cc([S+]([O-])CC(F)(F)F)c(C)cc2C)c1=O (racemic) [compound 35] |  | 2.31 | 2.27 | efficacy (spider mites killed) [2]: 100%
5 | Cc1cc(C)c([S+]([O-])CC(F)(F)F)cc1-n1ncc(=O)n(CC(F)(F)F)c1=O (single isomer, unassigned) [compound 46] |  | 2.72 | 2.66 | 
6 | Cc1cc(F)c(-n2ncc(=O)n(CC(F)(F)F)c2=O)cc1[S+]([O-])CC(F)(F)F (single isomer, unassigned) [compound 51] |  | 2.62 | 2.57 | 
7 | Cc1cc(F)c(-n2ncc(=O)n(C)c2=O)cc1[S+]([O-])CC(F)(F)F (single isomer, unassigned; (-)) [Ex. No. 28, (−)-2-[2-fluoro-4-methyl-5-(2,2,2-trifluoroethylsulphinyl)phenyl]-4-methyl-1,2,4-triazine-3,5-dione] |  |  |  | chromatographic logP [1, 5]: 1.95; chromatographic logP ([1]; reversed-phase C18 HPLC column, pH 7.8, table column, [b] neutral range, pH 7.8, ammonium hydrogencarbonate/acetonitrile, read-out: LogP[b]): 1.9
8 | CCOC(=O)NC(=O)c1nn(-c2cc(SCC(F)(F)F)c(C)cc2F)c(=O)[nH]c1=O [Ethyl [(2-{2-fluoro-4-methyl-5-[(2,2,2-trifluoroethyl)sulphanyl]phenyl}-3,5-dioxo-2,3,4,5-tetrahydro-1,2,4-triazin-6-yl)carbonyl]arbamate] |  |  |  | chromatographic logP ([1]; [a] acidic range, pH 2.7, read-out: log P[a]): 2.5
9 | CCc1cc(CC)c(SSc2cc(NC(C)=O)c(CC)cc2CC)cc1NC(C)=O [N,N′-[Disulphanediylbis(4,6-diethylbenzene-3,1-diyl)]diacetamide] |  |  |  | chromatographic logP [1, 8]: 4.02
10 | CCc1cc(CC)c(SCC(F)(F)F)cc1NC(C)=O [N-{2,4-Diethyl-5-[(2,2,2-trifluoroethyl)sulphanyl]phenyl}acetamide] |  |  |  | chromatographic logP [1, 8]: 3.07
11 | CCn1c(=O)ccn(-c2ccc(C)c(SCC(F)(F)F)c2)c1=O [compound 83] |  | 2.74 | 2.81 | 

Further lines, with some results ahead:

Row | chromatographic logP [1, 6] | Molecule | LogP[a] [1, 3] | LogP[b] [1, 4] | other results
12 | 2.45 | Cc1cc(F)c(-n2ncc(=O)[nH]c2=O)cc1SCC(F)(F)F [2-{2-Fluoro-4-methyl-5-[(2,2,2-trifluoroethyl)sulphanyl]phenyl}-1,2,4-triazine-3,5(2H,4H)-dione] |  |  | 
13 | 1.79 | Cc1cc(F)c(-n2nc(C(=O)O)c(=O)[nH]c2=O)cc1SCC(F)(F)F [2-{2-Fluoro-4-methyl-5-[(2,2,2-trifluoroethyl)sulphanyl]phenyl}-3,5-dioxo-2,3,4,5-tetrahydro-1,2,4-triazine-6-carboxylic acid] |  |  | 
14 | 3.78 | CCO/C=C/C(=O)NC(=O)Nc1cc(SCC(F)(F)F)c(C)cc1F [(2E)-3-Ethoxy-N-({2-fluoro-4-methyl-5-[(2,2,2-trifluoroethyl)sulphanyl]phenyl}carbamoyl)-acrylamide] |  |  | chromatographic logP [1, 7]: 3.7
15 | 3.07 | CCOC(=O)c1cn(-c2cc(SCC(F)(F)F)c(C)cc2F)c(=O)n(C2CC2)c1=O [Ethyl 3-cyclopropyl-1-{2-fluoro-4-methyl-5-[(2,2,2-trifluoroethyl)sulphanyl]phenyl}-2,4-dioxo-1,2,3,4-tetrahydropyrimidine-5-carboxylate] |  |  | chromatographic logP [1, 7]: 3.02
16 | 1.58 | Cc1cc(F)c(-n2ncc(=O)[nH]c2=O)cc1[S+]([O-])CC(F)(F)F (stereo not shown) [Ex. No. 1, 2-{2-Fluoro-4-methyl-5-[(2,2,2-trifluoroethyl)sulphinyl]phenyl}-1,2,4-triazine-3,5(2H,4H)-dione] |  |  | chromatographic logP [1, 5]: 1.58
